Some test systems named below: SF-268 CNS; HOP-62 NSCLC; MOLT-4 leukemia; BT-549 breast; SNB-75 CNS; HCT-116 colon; HOP-92 NSCLC.
Assay in all cases: NCI anticancer screen, dose series, 48 h

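Exposure lasted 48 hours, with cells grown in 96-well plates and compounds tested at five concentrations. TGI marks complete inhibition of growth.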

On to `Cc1ccc(S(=O)(=O)N2CCCSCCSCCCN(S(=O)(=O)c3ccc(C)cc3)CC2)cc1`, for which the TGI with SF-268 CNS, in the assay on HOP-62 NSCLC, with MOLT-4 leukemia, in the assay on BT-549 breast, with SNB-75 CNS and in the assay on HCT-116 colon was above 100 µM in each case.
As for `CC(=O)N1c2ccccc2C2=NN(C)C(=N)SC21` (stereo unspecified), the TGI with SF-268 CNS, in the assay on HOP-62 NSCLC, in the assay with MOLT-4 leukemia, with BT-549 breast, with SNB-75 CNS and in the assay with HCT-116 colon was above 100 µM throughout.
As for `O=C1CNC(=O)/C(=C/c2c[nH]c3ccccc23)N1`, the TGI in the assay on SF-268 CNS, with HOP-62 NSCLC, with MOLT-4 leukemia, in the assay on BT-549 breast, in the assay with HOP-92 NSCLC and with HCT-116 colon was above 100 µM in each case.
Regarding `Cc1ccc(/C=C/C(=N/NC(=O)N/N=C(/C=C/c2ccc(C)cc2)C(C)C)C(C)C)cc1`, the TGI with SF-268 CNS, with HOP-62 NSCLC, with MOLT-4 leukemia, in the assay on BT-549 breast, with HOP-92 NSCLC and in the assay on HCT-116 colon was above 10 µM in each case.
`O=C1C2=Cc3ccccc3OC2(O)Oc2ccccc21` (stereo unspecified): the TGI in the assay on SF-268 CNS, in the assay on HOP-62 NSCLC, in the assay with MOLT-4 leukemia, in the assay on HOP-92 NSCLC, in the assay with SNB-75 CNS and in the assay with HCT-116 colon was above 100 µM throughout.
Regarding `CC(=O)Nc1ccc2c3c(cc(O)c2c1)N(C(=O)CCCCC(=O)N1CC(CCl)c2c1cc(O)c1cc(NC(C)=O)ccc21)CC3CCl` (stereo unspecified), the TGI in the assay on SF-268 CNS was 2.77 µM; in the assay on HOP-62 NSCLC, 8.78 µM; in the assay on MOLT-4 leukemia, 0.0176 µM; in the assay with BT-549 breast it was 2.31 µM; with SNB-75 CNS, 0.297 µM; in the assay with HCT-116 colon, above 100 µM.
With `c1ccc2c(c1)nn1c3ccc4nonc4c3[n-][n+]21`, the TGI in the assay on HOP-62 NSCLC, in the assay on MOLT-4 leukemia, in the assay with BT-549 breast, with HOP-92 NSCLC, in the assay on SNB-75 CNS and in the assay with HCT-116 colon was above 100 µM in each case.
With `Cc1cn(C2C=CC(COP(=O)(OCc3ccc([N+](=O)[O-])o3)N(C)CCCCCl)O2)c(=O)[nH]c1=O` (stereo unspecified), the TGI is 23.8 µM in the assay on SF-268 CNS; 30.9 µM in the assay on HOP-62 NSCLC; 26.4 µM with MOLT-4 leukemia; 10.9 µM with HOP-92 NSCLC; 10.8 µM with SNB-75 CNS; 20.8 µM in the assay on HCT-116 colon.
Take `COC(=O)C1CCC(=O)N1CN(C(C)=O)c1cc(OC)ccc1OC` (stereo unspecified): the TGI with SF-268 CNS, in the assay on HOP-62 NSCLC, with MOLT-4 leukemia, in the assay with HOP-92 NSCLC, with SNB-75 CNS and in the assay with HCT-116 colon was above 100 µM throughout.
Regarding `C[C@@H]1[C@H](O)CC2=C(CC[C@@H](O)C2(C)C)[C@@]1(CO)CCc1ccoc1`, the TGI with HOP-62 NSCLC, with MOLT-4 leukemia, with BT-549 breast, in the assay on HOP-92 NSCLC, with SNB-75 CNS and with HCT-116 colon was above 50 µM throughout.
Regarding `O=C(O)c1nc2ccc(Cl)cc2[nH]c1=O`, the TGI in the assay on SF-268 CNS, in the assay with HOP-62 NSCLC, in the assay on MOLT-4 leukemia, with BT-549 breast, with HOP-92 NSCLC and in the assay with HCT-116 colon was above 100 µM throughout.
Regarding `CN1CC(c2ccccc2)C(O)(C2(c3ccccc3)CN(C)CC(c3ccccc3)C2=O)C(c2ccccc2)C1` (stereo unspecified), the TGI in the assay on SF-268 CNS, in the assay on HOP-62 NSCLC, in the assay with MOLT-4 leukemia, with BT-549 breast, with HOP-92 NSCLC and in the assay with HCT-116 colon was above 100 µM each time.
Regarding `CC1=NN(c2nc(N)nc(CSc3cc(Cl)c(C)cc3S(N)(=O)=O)n2)C(C)(C)C1`, the TGI in the assay on SF-268 CNS, with HOP-62 NSCLC, in the assay with MOLT-4 leukemia, in the assay with BT-549 breast, in the assay with SNB-75 CNS and in the assay on HCT-116 colon was above 10 µM each time.
Turning to `COc1cc2cc(C(=O)N3CC(CCl)c4ccc([N+](C)(C)Cc5ccc([N+](=O)[O-])cc5)cc43)[nH]c2c(OC)c1OC` (stereo unspecified), the TGI in the assay with SF-268 CNS is 56.7 µM; with HOP-62 NSCLC, above 100 µM; in the assay with MOLT-4 leukemia, 6.44 µM; in the assay with BT-549 breast it was 35.6 µM; with HOP-92 NSCLC it was 6.58 µM; in the assay with SNB-75 CNS, 11.1 µM.
As for `CCCCN(CCCC)CCC(O)c1cc(-c2ccc(C(F)(F)F)cc2)nc(-c2ccc(C(F)(F)F)cc2)c1` (stereo unspecified), the TGI in the assay on SF-268 CNS, with HOP-62 NSCLC, in the assay on MOLT-4 leukemia, in the assay with HOP-92 NSCLC, in the assay on SNB-75 CNS and with HCT-116 colon was above 100 µM in each case.
For `COc1ccc2c(c1)CC1COc3cc(OC)ccc3C1O2` (stereo unspecified), the TGI in the assay on SF-268 CNS, in the assay with HOP-62 NSCLC, in the assay on MOLT-4 leukemia, with BT-549 breast, in the assay with HOP-92 NSCLC and in the assay with HCT-116 colon was above 100 µM throughout.
In the case of `O=C(c1cccc2ccccc12)C1S(=O)(=O)OCCOS1(=O)=O`, the TGI in the assay with HOP-62 NSCLC, in the assay on MOLT-4 leukemia, with BT-549 breast and in the assay on HCT-116 colon was above 100 µM throughout.
As to `O=C1CCC(=O)N1CNc1ccc2c(c1)S(=O)(=O)c1ccccc1O2`, the TGI with SF-268 CNS, in the assay on HOP-62 NSCLC, in the assay with MOLT-4 leukemia, in the assay on BT-549 breast, in the assay on HOP-92 NSCLC and with HCT-116 colon was above 100 µM throughout.
In the case of `Cn1c2c(c3ccccc31)CCN=C2C1CCCOC1=O` (stereo unspecified), the TGI in the assay on SF-268 CNS, in the assay on HOP-62 NSCLC, in the assay with BT-549 breast, in the assay with HOP-92 NSCLC, in the assay with SNB-75 CNS and in the assay with HCT-116 colon was above 100 µM in each case.
`CC1C2CCC3C(O)C2(CC(O)C2(O)C1CC(O)C2(C)C)CC3(C)O` (stereo unspecified): the TGI in the assay on SF-268 CNS, with BT-549 breast, in the assay on HOP-92 NSCLC and with HCT-116 colon was above 100 µM each time.

These data come from PubChem BioAssay (NCI).
